Series [1] has as its target trypsin. The series is described as follows: enzyme inhibition kinetics (Dixon's method); trypsin 208 nM, substrate BAPNA 0.6 and 1.2 mM, peptide 0-20 uM; three parallel experiments.
The target in series [2] is trypsin.
The test system of another series is Kv channels. The following applies: cited from earlier work.
The subject of the next series is 6-OHDA-treated cells. Conditions: cited from earlier work.
A further series deals with TRPV1 channels. Put plainly: Electrophysiology on TRPV1 channels expressed in Xenopus laevis oocytes. It counts as cell-based. The method, then:
Oocytes were injected with 50 nL of cRNA at a concentration of 1 ng/nL using a micro-injector (Drummond Scientific, Broomall, PA, USA).

Series [3] concerns the target T1, trypsin (Bos taurus, UniProt P00760).
T1 sequence (P00760 24-246): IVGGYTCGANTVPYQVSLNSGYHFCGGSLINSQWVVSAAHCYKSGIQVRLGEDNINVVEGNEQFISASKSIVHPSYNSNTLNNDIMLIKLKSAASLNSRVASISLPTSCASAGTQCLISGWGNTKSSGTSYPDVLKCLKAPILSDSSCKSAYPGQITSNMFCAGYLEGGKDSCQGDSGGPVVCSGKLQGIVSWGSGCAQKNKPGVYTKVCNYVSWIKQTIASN
The series is described as follows: Residual trypsin-inhibitory activity after heating. Conditions: after heating to 100 °C; 7 μM peptide, 1.2 mM BAPNA, 37 °C, three parallel experiments. It counts as biochemical. As for the experimental part: Figure 6 The effects of temperature on the trypsin-inhibitory activity levels of peptides. Peptides were incubated at the temperatures for 30 min and their residual activities were measured.
The temperature influence on the activity levels of peptides was assessed by measuring their residual inhibitory activity levels. After preincubation at temperatures ranging from 25 to 100 °C for 25 min, the peptide solutions were added to trypsin solution and the reaction mixtures were incubated for 10 min at 37 °C, then 1.2 mM BAPNA was added, followed by incubation at 37 °C for 30 min. The final concentration of the peptides was 7 μM. Substrate hydrolysis was measured at 410 nm. The residual activity was calculated based on the results of three parallel experiments according to the following equation [60]:% = (1 − residual enzyme activity/enzyme activity without inhibitor) × 100

A short description of series [4]: Thermal stability by CD spectroscopy. The series is classed as physicochemical. Conditions: CD spectra and residual trypsin-inhibitory activity. As for the experimental part: Figure 5 Evaluation of the thermal stability of peptides in deionized water via CD spectroscopy. Recordings of the CD spectra of HCIQ2c1 (a), HMIQ3c1 (b), HCIQ4c7 (c), and HCIQ1c9 (d) were conducted in the far UV region (190–240 nm) after the solutions were incubated over a temperature range from 25 °C to 100 °C for 20–25 min.
Circular dichroism (CD) spectra were recorded on a Chirascan-Plus CD spectropolarimeter (Applied Photophysics, Leatherhead, UK) in quartz cuvettes with an optical path length of 0.1 cm for the peptide spectrum region. The peptides were dissolved in deionized water ([…]) and incubated at temperatures ranging from 25 °C to 100 °C for 20–25 min before recording the CD spectra. The secondary structure elements were calculated using the Provencher–Glockner method using advanced Provencher calculation programs from the CDPro software package (Leatherhead, UK).

The next series addresses T2, Recombinant human P2X7R (Homo sapiens, UniProt Q99572).
T2 construct: complete extracellular domain, 36.8 kDa; purchased Abbexa LTD, Cambridge, UK
T2 sequence (Q99572 47-334): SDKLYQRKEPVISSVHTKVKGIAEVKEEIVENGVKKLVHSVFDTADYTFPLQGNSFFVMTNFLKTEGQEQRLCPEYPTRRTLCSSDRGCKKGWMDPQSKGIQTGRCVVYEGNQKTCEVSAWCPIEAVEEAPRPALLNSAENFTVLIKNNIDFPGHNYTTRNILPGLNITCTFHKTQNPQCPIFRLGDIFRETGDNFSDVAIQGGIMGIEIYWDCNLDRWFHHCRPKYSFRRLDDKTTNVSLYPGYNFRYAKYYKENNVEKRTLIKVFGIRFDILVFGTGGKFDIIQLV
The series is described as follows: SPR binding to immobilized P2X7R extracellular domain. The following applies: Biacore 3000, CM5 chip, P2X7R a.a. 47–334, HBS-N pH 7.4, 25 °C, peptide 5–100 μM, two-state (conformational change) binding model. The method, then:
SPR analyses were performed based on using a Biacore 3000 optical biosensor (GE Healthcare, USA) running under the program “Biacore 3000 Control Software v.1.0”. Recombinant human P2X7R (sequence positions of 47–334 a.a.; complete extracellular domain, 36.8 kDa) (Abbexa LTD, Cambridge, UK) was covalently immobilized on the carboxymethylated surface of the Biacore CM5 sensor chip (Cytiva, Chicago, IL, USA), then activated by the 1:1 mixture of 0.2 M 1-ethyl-3-(3-dimethylaminopropyl)carbodiimide hydrochloride (EDC) and 0.05 M N-hydroxysuccinimide (NHS) via the injection of receptor solution (15 μg/mL) in 10 mM sodium acetate (pH 5.0) for 10 min at a flow rate of 5 μL/min. The reference channel without immobilized P2X7R was used to correct the effects of the non-specific binding of peptides to the chip surface. The quantity of the immobilized hP2X7R equaled 12300 RU (resonance units, 1 RU corresponds to 1 pg receptor bound per mm^2 of chip surface). HBS-N (10 mM HEPES, 150 mM NaCl, pH 7.4) (Cytiva, USA) was used as a running buffer for SPR assays. Peptide solutions in the HBS-N buffer over a concentration range of 5–100 μM were passed through biosensor channels (working and reference) at a flow rate of 10 µL/min for 3 min at 25 °C. Dissociation of the formed peptide–P2X7R complexes was registered at the same flow rate for no less than 6 min from the moment of sample injection. […]

For series [5], the system named is P2X7R. The series is described as follows: ATP-induced YO-PRO-1 uptake in Neuro-2a cells. The series is classed as cell-based, murine. The method, then: Figure 11 The effects of the peptides on ATP-induced Neuro-2a cell viability and activation of P2X7R. (a) Impact of the peptides on Neuro-2a cell viability in the presence of 4 mM ATP. The peptides were tested at concentrations of 0.01, 0.1, and 1.0 μM. Cells were incubated with peptides for 1 h at 37 °C, then for 48 h with ATP. (b) Effects of the peptides (0.01, 0.1, and 1.0 μM) on YO-PRO-1 uptake in Neuro-2a cells. ATP was used as a P2X7R agonist. A438079 (10 μM) was used as a standard inhibitor of P2X7R. The peptide effects were evaluated against the effects of ATP. The data are shown as means ± SE; *—p < 0.05 compared to the effect of ATP alone.
For the uptake measurements of the large cationic dye YO-PRO-1, the peptides at final concentrations of 0.01, 0.1, and 1.0 μM were added to the culture medium with Neuro-2a cells and further incubated for 1 h at 37 °C with 5% CO2. Then, the cells were washed once with Hanks’ balanced salt solution (HBSS) (140 mM NaCl, 5 mM KCl, 0.8 mM MgCl2, 2 mM CaCl2, 10 mM glucose, 10 mM HEPES, pH 7.4) and filled with 180 μL of the same buffer. YO-PRO-1 (Sigma-Aldrich, St. Louis, MO, USA) was loaded into the wells to a final concentration of 5 μM, the cells were incubated for 15 min at 37 °C, then ATP was added to a final concentration of 4 mM and the plates were incubated for an additional 10 min. Then, the cells were washed three times with the buffer solution and the fluorescence intensity levels were measured with a PHERAstar FS plate reader (BMG, Germany) at λex = 480 nm and λem = 520 nm. A438079 (10 μM), a standard inhibitor of P2X7R, was used as positive control. The effectiveness of the peptides was evaluated relative to the control with ATP.

Another series has as its system Neuro-2a cells. Put plainly: ATP-induced Neuro-2a cell death (MTT). The series is classed as cell-based, murine.
For series [6], the system named is P2X7R. The series is classed as cell-based, murine.
Protocol: Neuro-2a cells were pre-incubated with studied peptides for 1 h at 37 °C with 5% CO2. Then, cells were washed twice with culture medium and loaded with 5 μM Fluo-8 dye (Sigma-Aldrich, St. Louis, MO, USA) and 1 μM Pluronic F-127 (Sigma-Aldrich, St. Louis, MO, USA) and incubated for 40 min at room temperature in HBSS saline at pH 7.4. Then, the cells were washed two times with the same solution but without the fluorescent dye and were incubated for 20–30 min at room temperature in the dark. In some experiments, Ca^2+-free medium was used. Here, 140 mM NaCl, 5 mM KCl, 0.8 mM MgCl2, 10 mM glucose, 10 mM HEPES, 5 mM EGTA, pH 7.4. ATP (1 mM final concentration) were added using a robotic microinjector (20 μL/well), then 10 s later the baseline recording and additional readings were taken up to 50 s at 1 s intervals. The standard P2X7R inhibitor A438079 (Sigma-Aldrich, St. Louis, MO, USA) was used as the inhibitory control. Ionomycin (Sigma-Aldrich, St. Louis, MO, USA) was used to generate a generic calcium signal in cells. Fluo-8 was excited at 488 nm, and the emission at 520 nm was measured with a PHERAstar plate reader (BMG LABTECH, Ortenberg, Germany).
For series [7] the following is noted: calculated using the CDSSR algorithm [54], cited from earlier work. The text has this:
Table 1 The peptide secondary structural elements. | column: α-Helix / I; α-Helix / II; α-Helix / III; β-Structure / I; β-Structure / II; β-Structure / III; β-Turn; Unordered Structure

Series [8] addresses recombinant human P2X7R (47-334, complete extracellular domain) (human) (UniProt Q99572).
Series [9] has the same target. The source holds these as a separate data set.

pKd, pKi: −log10 of the molar value. Bridge positions count the residues as written; N and C are the ends. Ends that are not written are not given here.

Kunitz-type peptide HCIQ1c9, sequence (A0A6B7FEJ3 15-72 limits assumed): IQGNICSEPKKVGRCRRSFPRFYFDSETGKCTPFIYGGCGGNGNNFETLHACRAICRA

As for Kunitz-type peptide HCIQ1c9, in the series with trypsin [1], the pKi was 6.20. The compound also had a decrease of trypsin-inhibitory activity (BAPNA hydrolysis) of 7 uM peptide after preincubation at 60 to 100 °C with trypsin [2] of 30 to 70 % decrease.
For “HCRG2: Kunitz-type peptide from H. crispa, C0HJU7 (RGICLEPKVVGPCKARIRRFYYDSETGKCTPFIYGGCGGNGNNFETLHACRGICRA; UniProt C0HJU7 1-56, looked up)”, the “activity on Kv channels” value with Kv channels was “blockers of Kv channels”. Besides, in the series on 6-OHDA-treated cells, the “effect on ROS production in 6-OHDA-treated cells” value is listed as “maintained ROS production in 6-OHDA-treated cells at the reference level”.
As for `Oc1cc2c(cc1O)CN(C(=S)NCCc1ccc(Cl)cc1)CCC2` [capsazepine], the “effect on TRPV1 channels” value with TRPV1 channels (capsazepine 10 µM (antagonist control)) is reported as “blocking of the channels”.
Take `COc1cc(CNC(=O)CCCC/C=C/C(C)C)ccc1O` [capsaicin]: in the series on TRPV1 channels (capsaicin 2 µM (agonist control)), the “effect on TRPV1 channels” value is on record as “activation of the TRPV1 channels”.
“IQGNICSEPKKVGRCRESFPRFYFDSETGKCTPFIYGGCGGNGNNFETLHACRAICRA (disulfide 6-56, 15-39, 31-52) [HCIQ4c7]”: the “decrease in trypsin-inhibitory activity after heating” value on trypsin [3] was 7%. Besides, the “thermostability: retains conformation and biological activity until” value in series [4] is 90–100 °C. Further, on Recombinant human P2X7R, the pKd is 4.34.
Take `Nc1ncnc2c1ncn2[C@@H]1O[C@H](COP(=O)(O)OP(=O)(O)OP(=O)(O)O)[C@@H](O)[C@H]1O` [ATP, adenosine-5’-triphosphate]: the “increase in YO-PRO-1 dye penetration” value in the series on P2X7R [5] (ATP 4 mM) stood at 49.4 ± 5.9%. Further, the “total dead cells after ATP” value with Neuro-2a cells (ATP 4 mM, 48 h, compared with control cells) is recorded as “up to 30.15 ± 0.68%”. In the series with P2X7R [6] (ATP 1 mM), the “effect on [Ca2+]i” value is “large sustained increase in [Ca^2+]i”.
On to `Clc1cccc(-c2nnnn2Cc2cccnc2)c1Cl` [A438079], for which the “reduction of ATP-induced YO-PRO-1 uptake” value in the series on P2X7R [5] (10 μM (standard inhibitor), 4 mM ATP, means ± SE) was determined as 18.5 ± 3.2%. Also, in the series with Neuro-2a cells (10 μM, pre-incubation, 4 mM ATP 48 h, vs ATP alone), the “increase in viability of ATP-treated cells” value was determined as 21.3 ± 0.5%. For the same compound, the “decrease in ATP-induced stable calcium response” value in the series on P2X7R [6] (10 μM, 1 mM ATP, Fluo-8, relative to control, means ± SE) is given as 47.7 ± 4.4%.
On to “IQGNICSEPKKVGRCRGSFPRFYFDSETGKCTPFIYGGCGGNGNNFETLRRCRAICRA (disulfide 6-56, 15-39, 31-52) [HMIQ3c1]”, for which the “thermostability: retains conformation and biological activity until” value in series [4] is 90–100 °C. The pKd on Recombinant human P2X7R is 4.36.
For the compound “SHPI-1: Kunitz-type peptide from Stichodactyla helianthus, UniProtKB P31713 (SICSEPKKVGRCKGYFPRFYFDSETGKCTPFIYGGCGGNGNNFETLHQCRAICRA; UniProt P31713 1-55, looked up)”, in [7], the “Unordered Structure” value is 40.0 and the β-Turn is 18.2. Further, in [7] (summary value), the “α-Helix III” value is given as 20.0 and the “β-Structure III” value was 21.8.
As for Kunitz-type peptide HCIQ4c7, in series [8], the reduction of ATP (4 mM)-induced YO-PRO-1 dye uptake into mouse Neuro-2a cells; peptide at 0.01, 0.1 and 1.0 uM; value at 1 uM was 28.5%. The decrease of trypsin-inhibitory activity (BAPNA hydrolysis) of 7 uM peptide after preincubation at 25 to 100 °C; value after 100 °C with trypsin [2] was found to be 7 % decrease. Also, the decrease of the stable Ca2+ response (Fluo-8) to 1 mM ATP in mouse Neuro-2a cells pre-incubated with the peptide at 0.1, 1.0 and 10.0 uM; value at 10 uM in [9] is 59.1%.
For Kunitz-type peptide HMIQ3c1, the reduction of ATP (4 mM)-induced YO-PRO-1 dye uptake into mouse Neuro-2a cells; peptide at 0.01, 0.1 and 1.0 uM; value at 0.1 uM in [8] stood at 28.1%. The decrease of the stable Ca2+ response (Fluo-8) to 1 mM ATP in mouse Neuro-2a cells pre-incubated with the peptide at 0.1, 1.0 and 10.0 uM; value at 10 uM in series [9] came out at 40.6%.
With “HCRG1: Kunitz-type peptide from H. crispa, C0HJU6 (RGICSEPKVVGPCKAGLRRFYYDSETGECKPFIYGGCKGNKNNFETLHACRGICRA; UniProt C0HJU6 1-56, looked up)”, the “activity on Kv channels” value in the series on Kv channels is given as “blockers of Kv channels”. For the same compound, in the series with 6-OHDA-treated cells, the “effect on ROS production in 6-OHDA-treated cells” value is “maintained ROS production in 6-OHDA-treated cells at the reference level”.

These data come from PMC9103184, “Kunitz-Type Peptides from Sea Anemones Protect Neuronal Cells against Parkinson’s Disease Inductors via Inhibition of ROS Production and ATP-Induced P2X7 Receptor Activation” (International Journal of Molecular Sciences, 2022).
